Activity calls are given as the source filed them. The rule behind the calls is not given here.
Tested on: M. tuberculosis wild type, biotin-free medium, growth
Assay: growth inhibition of wild-type M. tuberculosis, biotin-free medium, single point, dry powder (AID 743350)

Row | Structure (SMILES) | IC90
1 | CN1c2ccc(-c3cccc(F)c3)cc2[C@@H]2[C@@H](CCN2C(=O)c2ccc3c(c2)OCO3)[C@@H]1CO | > 50 µM (inactive)
2 | CC(=O)c1ccc(N2CCN(C(=O)c3ccccc3Cl)CC2)cc1 | > 50 µM (inactive)
3 | COc1cccc(NC(=O)N2CC[C@@H]3[C@@H](CO)N(C)c4ccc(-c5cccc(F)c5)cc4[C@@H]32)c1 | > 50 µM (inactive)
4 | CNC(=O)c1ccc(N2CCN(C(=O)c3ccc4c(c3)OCO4)CC2)cc1 | > 50 µM (inactive)
5 | CN(C)C(=O)c1ccc(N2CCN(C(=O)c3ccc4c(c3)OCO4)CC2)cc1 | > 50 µM (inactive)
6 | COc1ccc(NC(=O)N2CC[C@@H]3[C@@H](CO)N(C)c4ccc(-c5cccc(F)c5)cc4[C@@H]32)cc1 | > 50 µM (inactive)
7 | COc1ccccc1C(=O)N1CCN(c2ccc(C(C)=O)cc2)CC1 | > 50 µM (inactive)
8 | CN1c2ccc(-c3cccc(F)c3)cc2[C@H]2[C@H](CCN2C(=O)Cc2ccccc2)[C@H]1CO | > 50 µM (inactive)
9 | COc1ccccc1NC(=O)N1CC[C@@H]2[C@@H](CO)N(C)c3ccc(-c4cccc(F)c4)cc3[C@@H]21 | > 50 µM (inactive)
10 | COC(=O)CCCCCCC(=O)N1CC[C@@H]2[C@@H](CO)N(C)c3ccc(-c4cccc(F)c4)cc3[C@@H]21 | > 50 µM (inactive)
11 | CN1c2ccc(-c3cccc(F)c3)cc2[C@H]2[C@H](CCN2C(=O)Nc2ccccc2F)[C@H]1CO | > 50 µM (inactive)
12 | CN1c2ccc(-c3ccc(F)cc3)cc2[C@H]2[C@H](CCN2C(=O)Nc2ccc(F)cc2)[C@H]1CO | > 50 µM (inactive)
13 | CN1c2ccc(-c3cccc(F)c3)cc2[C@H]2[C@H](CCN2C(=O)CCCCCCC(=O)O)[C@H]1CO | > 50 µM (inactive)
14 | CC(=O)c1ccc(N2CCN(C(=O)c3ccc4c(c3)OCO4)[C@H](C)C2)cc1 | 27.3 µM
15 | CC(C)NC(=O)N1CC[C@@H]2[C@@H](CO)N(C)c3ccc(-c4ccc(F)cc4)cc3[C@@H]21 | > 50 µM (inactive)
16 | COc1ccc(NC(=O)N2CC[C@@H]3[C@@H](CO)N(C)c4ccc(-c5ccc(F)cc5)cc4[C@@H]32)cc1 | > 50 µM (inactive)
17 | CC(=O)c1ccc(N2CCN(C(=O)c3ccccc3F)CC2)cc1 | > 50 µM (inactive)

Row | Structure (SMILES) | IC90
18 | CN1c2ccc(-c3ccc(F)cc3)cc2[C@H]2[C@H](CCN2C(=O)Cc2cccnc2)[C@H]1CO | > 50 µM (inactive)
19 | CN1c2ccc(-c3cccc(F)c3)cc2[C@H]2[C@H](CCN2C(=O)Cc2cccnc2)[C@H]1CO | > 50 µM (inactive)
20 | CNS(=O)(=O)c1ccc(N2CCN(C(=O)c3ccc4c(c3)OCO4)CC2)cc1 | > 50 µM (inactive)
21 | CN1c2ccc(-c3cccc(F)c3)cc2[C@@H]2[C@@H](CCN2C(=O)c2ccc3c(c2)OCO3)[C@H]1CO | > 50 µM (inactive)
22 | CC(=O)c1ccc(NCCNC(=O)c2ccc3c(c2)OCO3)cc1 | > 50 µM (inactive)
23 | CCCNC(=O)N1CC[C@@H]2[C@@H](CO)N(C)c3ccc(-c4ccc(F)cc4)cc3[C@@H]21 | > 50 µM (inactive)
24 | CC(=O)c1ccc(N2CC3(CN(C(=O)c4ccc5c(c4)OCO5)C3)C2)cc1 | > 50 µM (inactive)
25 | CN1c2ccc(-c3ccc(F)cc3)cc2[C@H]2[C@H](CCN2C(=O)Nc2cc(F)ccc2F)[C@H]1CO | > 50 µM (inactive)
26 | COCC(=O)N1CC[C@@H]2[C@@H](CO)N(C)c3ccc(-c4cccc(F)c4)cc3[C@@H]21 | > 50 µM (inactive)
27 | CC(=O)c1ccc(N2CCN(C(=O)c3ccc4c(c3)OCO4)CC2)cc1 | 39.7 µM
28 | CCC(=O)N1CC[C@@H]2[C@@H](CO)N(C)c3ccc(-c4ccc(F)cc4)cc3[C@@H]21 | > 50 µM (inactive)
29 | CCCCCCCC(=O)N1CC[C@@H]2[C@@H](CO)N(C)c3ccc(-c4cccc(F)c4)cc3[C@@H]21 | > 50 µM (inactive)
30 | CC(C)NC(=O)N1CC[C@@H]2[C@@H](CO)N(C)c3ccc(-c4cccc(F)c4)cc3[C@@H]21 | > 50 µM (inactive)
31 | CN1c2ccc(-c3ccc(F)cc3)cc2[C@H]2[C@H](CCN2C(=O)Cc2ccccn2)[C@H]1CO | > 50 µM (inactive)
32 | CN1c2ccc(-c3cccc(F)c3)cc2[C@H]2[C@H](CCN2C(=O)c2ccc3c(c2)OCO3)[C@@H]1CO | > 50 µM (inactive)
33 | COc1ccccc1NC(=O)N1CC[C@@H]2[C@@H](CO)N(C)c3ccc(-c4ccc(F)cc4)cc3[C@@H]21 | > 50 µM (inactive)
34 | CN1c2ccc(-c3cccc(F)c3)cc2[C@H]2[C@H](CCN2C(=O)CCCCCCN)[C@H]1CO | > 50 µM (inactive)

— PubChem BioAssay AID743350 (Broad Institute, 2014)
